Here are results for 6 compounds from patent publication US9796958B2, “Bacterial growth enhancer” (Plant Bioscience Limited, priority 2005, dated 2017).

Common to all, as to type: cell-based
In one assay the test system is LAB. Briefly: LAB growth response to catecholamines in serum-based media. The conditions noted are these: serum-based media only.
Another assay concerns E. coli. The conditions noted are these: 55Fe-complexed human lactoferrin, tannic acid 50 μg/ml, other compounds 100 μM, BF 2% v/v. The procedure:
(§1) L. casei and E. coli were added at around 5×10^6 CFU/ml to triplicate 1 ml serum-SAPI medium containing the additions shown in Table 2, and 2×10^5 cpm/ml of ^55Fe-complexed human lactoferrin. Tannic acid was used at 50 μg/ml, the other compounds were all used at 100 μM, final concentration; BF was used at 2% v/v. Cultures were incubated as described in the legend to FIG. 2, and growth enumerated on MRS agar (L. casei) or Luria agar (E. coli). ^55Fe incorporation was determined by scintillation counting of triplicate washed bacteria cultures.

The test system of the next assay is L. casei. Briefly: Delivery of lactoferrin-complexed 55Fe to bacteria in serum-SAPI. Conditions: 55Fe-complexed human lactoferrin, tannic acid 50 μg/ml, other compounds 100 μM, BF 2% v/v. The procedure:
as §1

As to `NC[C@H](O)c1ccc(O)c(O)c1` [Noradrenaline], in the assay on LAB, the “Increase in LAB growth” value is “around 2 log-fold”. The entries for the “55Fe incorporation/ml of culture” value with E. coli and with L. casei were 8542 and 29, respectively.
On to `O=C(O)/C=C/c1ccc(O)c(O)c1` [Caffeic acid], for which the “55Fe incorporation/ml of culture” value in the assay on E. coli was 11385; in the assay with L. casei, 29.
In the case of Catechin, the “55Fe incorporation/ml of culture” value was 3931 with E. coli and 57 in the assay on L. casei.
For `NCCc1ccc(O)c(O)c1` [Dopamine], the “Increase in LAB growth” value in the assay with LAB is given as “around 2 log-fold”. Further, the “55Fe incorporation/ml of culture” value is on record as 6815 with E. coli and 48 with L. casei.
For `O=C(/C=C/c1ccc(O)c(O)c1)O[C@@H]1C[C@](O)(C(=O)O)C[C@@H](O)[C@H]1O` [Chlorogenic acid], the “55Fe incorporation/ml of culture” value came out at 7374 in the assay with E. coli and 28 in the assay on L. casei.
For `O=C(OC[C@H]1O[C@@H](OC(=O)c2cc(O)c(O)c(OC(=O)c3cc(O)c(O)c(O)c3)c2)[C@H](OC(=O)c2cc(O)c(O)c(OC(=O)c3cc(O)c(O)c(O)c3)c2)[C@@H](OC(=O)c2cc(O)c(O)c(OC(=O)c3cc(O)c(O)c(O)c3)c2)[C@@H]1OC(=O)c1cc(O)c(O)c(OC(=O)c2cc(O)c(O)c(O)c2)c1)c1cc(O)c(O)c(OC(=O)c2cc(O)c(O)c(O)c2)c1` [Tannic acid], in that order: 13952 and 28.
